This test concerns the target LSD1 (Homo sapiens, UniProt O60341). Put plainly: in vitro demethylation of H3K4me2 peptide by GST-LSD1, mass spectrometry readout. The test is classed as biochemical.

`CC(C)(C)OC(=O)NC1CC1c1ccc(OC(=O)OC(C)(C)C)cc1` (stereo not shown) [compound 3, tert-butyl 2-(4-(tert-butoxycarbonyloxy)phenyl)cyclopropylcarbamate] registered an IC50 of around 21.2 µM.

As usually defined, the IC50 is the concentration at which inhibition is half-maximal.
